In US20060074243A1, “Hydroxamic acid and amide compounds and their use as protease inhibitors” (Pharmacia Corporation, priority 2002, published 2006) one finds Ki data, which are given here for 14 compounds.

Common to all, as to assay: In vitro MMP inhibition analysis (fluorogenic peptide substrate cleavage), Ki
Format in all cases: biochemical

The target in one experiment is T1, Human recombinant MMP-2 (Homo sapiens, UniProt P08253).
T1 construct: made in house; host or cells: MMP-2-transfected p2AHT2 cells
T1 sequence (P08253 110-660): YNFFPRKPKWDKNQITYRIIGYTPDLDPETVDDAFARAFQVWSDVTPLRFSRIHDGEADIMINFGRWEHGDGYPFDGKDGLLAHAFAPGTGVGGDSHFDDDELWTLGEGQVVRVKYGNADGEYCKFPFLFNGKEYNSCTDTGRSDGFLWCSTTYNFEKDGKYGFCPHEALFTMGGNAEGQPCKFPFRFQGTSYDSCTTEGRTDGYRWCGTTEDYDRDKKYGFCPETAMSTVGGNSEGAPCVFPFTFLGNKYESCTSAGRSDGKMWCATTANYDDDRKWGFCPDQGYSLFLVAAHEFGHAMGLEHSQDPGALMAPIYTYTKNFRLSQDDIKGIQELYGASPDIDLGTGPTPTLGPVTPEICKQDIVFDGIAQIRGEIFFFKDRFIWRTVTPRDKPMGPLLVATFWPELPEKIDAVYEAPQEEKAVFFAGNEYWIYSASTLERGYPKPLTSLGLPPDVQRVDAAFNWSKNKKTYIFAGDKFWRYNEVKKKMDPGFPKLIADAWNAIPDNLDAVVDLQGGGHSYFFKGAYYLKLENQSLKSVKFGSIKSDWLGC
As to the method:
(§1) Several compounds and salts were analyzed in an in vitro assay to determine their ability to inhibit the MMP cleavage of peptide substrates. Inhibition constant (Ki) were calculated from the assayed compound-MMP interactions.
(§2) Human recombinant MMP-1, MMP-2, MMP-9, MMP-13, and MMP-14 were used in this assay. All enzymes were prepared in Assignee's laboratories following usual laboratory procedures. Protocols for the preparation and use of these enzymes are available in the scientific literature. See, e.g., Enzyme Nomenclature (Academic Press, San Diego, Calif., 1992) (and the citations therein). See also, Frije et al., J. Biol. Chem., 26(24), 16766-73 (1994).
The MMP-2 proenzyme was purified by gelatin Sepharose chromatography from MMP-2-transfected p2AHT2 cells provided by Dr. Gregory Goldberg of Washington University (St. Louis, Mo.).
(§3) All MMPs were activated using 4-aminophenylmercuric acetate (“APMA”, Sigma Chemical, St. Louis, Mo.) or trypsin. MMP-9 also was activated using human recombinant MMP-3 (purified in Assignee's laboratory following standard cloning and purification techniques).
(§4) The following fluorogenic, methoxycoumarin-containing polypeptide substrate (I) was used in the MMP inhibition assays: MCA-ArgProLeuGlyLeuDpaAlaArgGluArgNH2 (I) “MCA” is 7-methoxycoumarin-4-yl acetyl. Substrate (I) was prepared Assignee's laboratory. In the absence of MMP inhibitory activity, the substrate is cleaved at the Gly-Leu peptide bond. This cleavage separates the highly fluorogenic peptide from the 2,4-dinitrophenyl quencher, thus resulting in increase of fluorescent intensity.
(§5) The stock solutions of the assayed compounds and salts were prepared in […] (DMSO). These stock solutions were diluted in Buffer A (100 mM Tris-HCl, 100 mM NaCl, 10 mM CaCl2, 0.05% polyoxyethylene 23 lauryl ether, pH 7.5) to obtain solutions with different compound concentrations, i.e., assay solutions with different concentrations of the assayed […] compound. The experiment controls contained the same amount of Buffer A/DMSO as the assayed sample, but contained none of the tested compound or salt.
(§6) The assays from which the Ki determinations were made were performed as follows. The assayed compound samples were incubated in separate wells of untreated white polystyrene plates (Nunc Nalgene International, Rochester, N.Y.), and analyzed on a Tecan SpectraFlour Plus plate reader. The excitation wavelength was 330 nm, and the emission wavelength—420 nm. All samples (assayed compounds and controls) were incubated in separate plate wells at room temperature for 1 hr in the presence of 4 μM of MMP substrate (I). In the absence of MMP inhibitory activity, substrate (I) was cleaved at the Gly-Leu bond resulting in an increase of relative fluorescence. Inhibition was observed as a reduced rate of this increase in relative fluorescence. […] This protocol is a modification of method by Knight et al., FEBS Lett., 296(3), 263-266 (1992). Apparent inhibitory constants were determined by non-linear regression of reaction velocity as a function of inhibitor and enzyme concentration using Morrison's equation, as described by Kuzmic, Anal. Biochem. 286, 45-50 (2000). Modifications were made in the non-linear regression method to allow a common control reaction rate and effective enzyme concentration to be shared between all dose-response relationships on a given assay plate. Since the substrate concentration was chosen to be at or below the Km, the apparent Ki's from this analysis were reported as Ki's without correction for the influence of substrate.
(§7) The above protocols were used to determine Ki constants for the compounds in Examples 2-35 above. All Ki values in Table 1 are given in nM units.

The target in another experiment is T2, Human recombinant MMP-9 (Homo sapiens, UniProt P14780).
T2 construct: made in house; host or cells: MMP-9-transfected HT1080 cells (spent media)
As to the method:
as §1, §2
The MMP-9 proenzyme was purified by gelatin Sepharose chromatography from spent media of MMP-9-transfected HT1080 cells provided by Dr. Howard Welgus of Washington University (St. Louis, Mo.).
as §3, §4, §5, §6, §7

The target in the next experiment is T3, Human recombinant MMP-14 (Homo sapiens, UniProt P50281).
T3 construct: The catalytic domain enzyme was expressed in E. coli inclusion bodies, solubilized in urea; made in house
On the procedure: as §1, §2
The MMP-14 full length cDNA was provided by Dr. Gregory Goldberg of Washington University (St. Louis, Mo.). The catalytic domain enzyme was expressed in E. coli inclusion bodies, solubilized in urea, purified on a preparative […] reverse phase HPLC column, and then refolded in the presence of zinc acetate and purified for use.
as §3, §4, §5, §6, §7

Each structure is given as a SMILES string. pKi: −log10 of the molar value. Where only a bound is given, the exact number is not on record here.

In general, pKi refers to the Ki on a negative log10 scale, so that one unit is a factor of ten.

T2 sequence (P14780 107-707 limits assumed): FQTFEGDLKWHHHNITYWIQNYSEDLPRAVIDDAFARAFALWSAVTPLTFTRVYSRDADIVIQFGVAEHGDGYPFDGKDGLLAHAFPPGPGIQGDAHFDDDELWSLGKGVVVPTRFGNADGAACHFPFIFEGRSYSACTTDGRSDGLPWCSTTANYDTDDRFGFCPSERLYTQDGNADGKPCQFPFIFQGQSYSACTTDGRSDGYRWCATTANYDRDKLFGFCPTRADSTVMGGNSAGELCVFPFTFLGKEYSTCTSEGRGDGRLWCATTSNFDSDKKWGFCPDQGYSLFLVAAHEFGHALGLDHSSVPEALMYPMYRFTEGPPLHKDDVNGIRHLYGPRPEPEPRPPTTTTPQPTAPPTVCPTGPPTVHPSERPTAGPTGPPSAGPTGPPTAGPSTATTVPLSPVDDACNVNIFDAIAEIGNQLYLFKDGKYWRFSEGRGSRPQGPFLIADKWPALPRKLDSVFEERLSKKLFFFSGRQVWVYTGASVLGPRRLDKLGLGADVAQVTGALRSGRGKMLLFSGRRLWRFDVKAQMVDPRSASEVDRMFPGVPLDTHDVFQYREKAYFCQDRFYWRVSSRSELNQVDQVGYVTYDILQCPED

On to `O=C(NO)C1(S(=O)(=O)c2ccc(-c3ccc(-c4ccc(OC(F)(F)F)cc4)cn3)cc2)CCN(C2CC2)CC1` [Example 145], for which the pKi on Human recombinant MMP-2 (Table 2) is 9.14; on Human recombinant MMP-9 (Table 2) it was 8.18; on Human recombinant MMP-14 (Table 2), 6.25.

`O=C(NO)C1(S(=O)(=O)c2ccc(-c3cnc(-c4cccs4)cn3)cc2)CCOCC1` [Example 160]: the pKi at Human recombinant MMP-2 (Table 2) is 8.70; on Human recombinant MMP-9 (Table 2), 8.50; at Human recombinant MMP-14 (Table 2), below 5.00.

Regarding `CCN1CCC(C(=O)NO)(S(=O)(=O)c2ccc(-c3noc(-c4ccc(C(F)(F)F)cc4)n3)cc2)CC1` [Example 149], the pKi on Human recombinant MMP-2 (Table 2) was 9.12; on Human recombinant MMP-9 (Table 2), 8.29; at Human recombinant MMP-14 (Table 2), 6.93.

For the compound `O=C(NO)C1(S(=O)(=O)c2ccc(-c3ccc(-c4ccccc4)cn3)cc2)CCN(C2CC2)CC1` [Example 151], the pKi is 9.82 at Human recombinant MMP-2 (Table 2), 10.05 at Human recombinant MMP-9 (Table 2) and 6.92 at Human recombinant MMP-14 (Table 2).

Regarding `O=C(NO)C1(S(=O)(=O)c2ccc(-c3ccc(CCCC(F)F)cc3)cc2)CCOCC1` [Example 57], the pKi at Human recombinant MMP-2 (Table 1) was 9.82; on Human recombinant MMP-9 (Table 1), 9.42; at Human recombinant MMP-14 (Table 1), 6.34.

For `O=C(NO)C1(S(=O)(=O)c2ccc(-c3ccc(CCC4CCCCC4)cn3)cc2)CCOCC1` [Example 129], the pKi is 9.03 on Human recombinant MMP-2 (Table 2), 8.07 on Human recombinant MMP-9 (Table 2) and 6.13 at Human recombinant MMP-14 (Table 2).

Regarding `CCCCc1ccc(-c2ccc(S(=O)(=O)C3(C(=O)NO)CCN(CC)CC3)cc2)cn1` [Example 139], the figures for the pKi on Human recombinant MMP-2 (Table 2), at Human recombinant MMP-9 (Table 2) and on Human recombinant MMP-14 (Table 2) were 8.05, 8.21 and below 5.00, respectively.

For the compound `O=C(NO)C1(S(=O)(=O)c2ccc(-c3cnc(OCC(F)(F)C(F)(F)F)cn3)cc2)CCOCC1` [Example 154], the pKi is 9.89 at Human recombinant MMP-2 (Table 2), 9.47 at Human recombinant MMP-9 (Table 2) and 6.31 on Human recombinant MMP-14 (Table 2).

On to `O=C(NO)C1(S(=O)(=O)c2ccc(-c3ccc(CCCC(F)(F)F)cc3)cc2)CCOCC1` [Example 42], for which the values for the pKi at Human recombinant MMP-2 (Table 1), on Human recombinant MMP-9 (Table 1) and on Human recombinant MMP-14 (Table 1) were 9.47, 9.19 and 6.10, respectively.

For the compound `O=C(NO)C1(S(=O)(=O)c2ccc(-c3ccc(-n4ccnc4)cc3)cc2)CCOCC1` [Example 127], the negative logarithm of the Ki (pKi) on Human recombinant MMP-2 (Table 2) was 9.83; at Human recombinant MMP-9 (Table 2), 8.72; on Human recombinant MMP-14 (Table 2), 6.38.

`CCN1CCC(C(=O)NO)(S(=O)(=O)c2ccc(-c3ccc(CCC(C)(F)F)cc3)cc2)CC1` [Example 61]: the negative-log Ki (pKi) on Human recombinant MMP-2 (Table 1) is 9.96; at Human recombinant MMP-9 (Table 1), 9.59; at Human recombinant MMP-14 (Table 1), 6.24.

`O=C(NO)C1(S(=O)(=O)c2ccc(-c3cnc(NCC4CC4)cn3)cc2)CCOCC1` [Example 128]: the pKi on Human recombinant MMP-2 (Table 2) was 8.29; at Human recombinant MMP-9 (Table 2), 8.36; on Human recombinant MMP-14 (Table 2) it was below 5.60.

As for `COCCN1CCC(C(=O)NO)(S(=O)(=O)c2ccc(-c3ccc(CCCC(F)(F)F)cn3)cc2)CC1` [Example 54], the negative-log Ki (pKi) was 9.92 on Human recombinant MMP-2 (Table 1), 9.60 at Human recombinant MMP-9 (Table 1) and 5.95 on Human recombinant MMP-14 (Table 1).

With `O=C(NO)C1(S(=O)(=O)c2ccc(-c3ncc(CCC(F)(F)C(F)(F)F)cn3)cc2)CCOCC1` [Example 137], the figures for the pKi on Human recombinant MMP-2 (Table 2), on Human recombinant MMP-9 (Table 2) and on Human recombinant MMP-14 (Table 2) were 8.57, 8.94 and 5.54, respectively.
